Experimental data from patent US20230365639A1, “DEFENSIN FRAGMENT DERIVED LIPOPEPTIDES FOR TREATMENT OF DRUG-RESISTANT MICROORGANISMS” (priority 2020, published 2023).
In brackets after ≈: the same amount, converted by molar mass. Entries after “also recorded” stand apart in the source; their conditions may differ. Starred links: 1 amine or outer side, 2 acyl side, 3 side chain; linkers in the order of their positions; H or OH if unused. Non-standard residues stand in square brackets, D forms with d. Residues, ends and D or L forms follow the SMILES beside them. No end group written: not given here. ξ: configuration not given here. *: point of attachment. K(Pam) = CCCCCCCCCCCCCCCC(=O)NCCCC[C@H](N[*:1])C(=O)[*:2]; X1 = CCCCCCCCCCCCCCCC(=O)OCC(C*)OC(=O)CCCCCCCCCCCCCCC; Palmitoyl = CCCCCCCCCCCCCCCC(=O)*; AEEA = NCCOCCOCC(=O)O; ξC = NC(CS)C(=O)O

Legend:
[1] = Cellular toxicity, WST-1 cell proliferation assay; type: cell-based
Protocol: (§1) Methods: Cellular toxicity was determined by Lactate dehydrogenase concentration and WST-1 cell proliferation assay as well as hemolysis assay.

[2] = Cellular toxicity, lactate dehydrogenase (LDH) assay; type: cell-based
Protocol: as §1

[3] = tested on: red blood cell; assay: Hemolysis assay; type: cell-based
Protocol: as §1

[4] = Acute tolerability after oral administration; type: in vivo, C57BL/6N mice
Description: Methods: C57BL/6N mice were generated and maintained (including breeding and housing) at the animal facilities of the Helmholtz Centre for Infection Research (HZI) under enhanced specific pathogen-free (SPF) conditions (Stehr et al., 2009). Animals used in the experiments were gender and age matched. Female and male mice with an age of 8-12 weeks were used. Sterilized food and water ad libitum were provided. Mice were kept under a strict 12-hour light cycle (lights on at 7:00 am and off at […]) and housed in groups of two to six mice per cage. All mice were euthanized by asphyxiation with CO2 and cervical dislocation. All animal experiments were performed in agreement with the local government of Lower Saxony, Germany (approved permission No. 33.19-42502-04-18/2499).
Age- and gender-matched mice received two doses of peptides (0, 125 μg or 250 μg) solved in 100 μl PBS orally per day. Bodyweight and appearance were recorded. The following day, mice were sacrificed and stomach, kidney, spleen, liver, small intestine, cecum and colon were removed for histological scoring. Around 1 ml of blood was taken from the heart to measure inflammatory markers including creatinine in the kidney and the enzyme levels of glutamate-oxalacetate-transaminase (GOT) in the liver.

[5] = tested on: bacteria from the ESKAPE panel; type: cell-based
Protocol: Methods: Broth microdilution assay. Log-phase bacteria were collected by centrifugation (2500 rpm, 10 min, 4° C.), washed twice with 10 mM sodium phosphate buffer containing 1% (w/v) TSB and the optical density at 600 nm was adjusted to 0.1. Approximately 5×10^5 CFU/ml bacteria were incubated with serial peptide concentrations (1.17-150 μM) in a final volume of 100 μl in 10 mM sodium phosphate buffer containing 1% (w/v) TSB for 2 hours at 37° C. After incubation, 100 μl of 6% TSB (w/v) was added and absorbance was measured at 600 nm (Tecan, Switzerland) and monitored for 18 hours. Afterwards, 100 μl per well was plated on LB agar to determine the number of viable bacteria microbiologically. Bactericidal activity was expressed as the LC99.9, the lowest concentration that killed ≥99.9% of bacteria.

[6] = tested on: several pathogenic bacteria; assay: Radial diffusion assay and MIC screening for antimicrobial activity; type: cell-based; conditions: radial diffusion assay and MIC determinations
Protocol: (§2) Methods: Log-phase bacteria were cultivated for up to 18 hours in TSB (TSB, Becton Dickinson, USA), washed and diluted to 4×10^6 CFU in 10 ml agar. Bacteria were incubated in 10 ml of 10 mM sodium phosphate, pH 7.4, containing 0.3 mg/ml of TSB powder and 1% (w/v) low EEO-agarose (AppliChem). Lipopeptides were pipetted into punched wells and diffused into the gel for 3 hours at 37° C. After that, a nutrient-rich gel with 6% TSB (w/v) and 1% agarose in 10 mM sodium phosphate buffer was poured on top of the first gel and incubated for up to 24 hours at 37° C. Then the diameter of inhibition zones was measured.
(§3) Clinical isolates of A. baumannii DSM30007, E. faecium DSM2918, K. pneumoniae DSM30104 and P. aeruginosa DSM1117 were provided by the Department for Laboratory Medicine at Robert-Bosch-Hospital Stuttgart, Germany. C. rodentium DSM16636 and E. coli DSM8695 were obtained from the Deutsche Sammlung von Mikroorganismen and Zellkultur GmbH Braunschweig, Germany. […]

[7] = tested on: ypuA promoter; assay: ypuA promoter luciferase reporter gene assay; type: cell-based, Bacillus subitilis 1S34
Protocol: A specific bacterial reporter strain with the genetic background of Bacillus subitilis 1S34, carrying the promoter of the ypuA gene, fused to the firefly luciferase reporter gene, was used to identify cell envelope-related damage caused by treatment with antimicrobial compounds. Bacteria were cultured to an OD600 of 0.9 in LB broth with 5 μg/ml erythromycin at 37° C. and diluted to an OD600 of 0.02. Serial peptide dilutions (0.15-150 μM) were prepared in a microtiter plate and incubated with the adjusted bacterial suspension at 37° C. for 1 hour. Subsequently, citrate buffer (0.1 M, pH 5) containing 2 mM luciferin (Iris Biotech, Germany) was added and luminescence was measured using a microplate reader (Tecan, Switzerland).

[8] = tested on: C. tropicalis; assay: Broth microdilution assay, antifungal activity; type: cell-based
Protocol: (§4) Methods: Broth microdilution assay. Candida was cultured in TSB over night at 37° C., centrifuged (1500 rpm, 10 min, RT) and washed twice with 10 mM sodium phosphate buffer containing 1% (w/v) TSB. Candida cells were counted and approximately 5×10^5 CFU/ml fungi were incubated with serial peptide concentrations (1.17-150 μM) in a final volume of 100 μl in 10 mM sodium phosphate buffer containing 1% (w/v) TSB for 2 hours at 37° C. After incubation, 100 μl of 6% TSB (w/v) was added and absorbance was measured at 600 nm (Tecan, Switzerland) and monitored for 18 hours. Afterwards, 100 μl per well was plated on YPD agar to determine the number of viable bacteria microbiologically.

[9] = tested on: C. albicans; assay: Broth microdilution assay, antifungal activity; type: cell-based
Protocol: as §4

[10] = tested on: S. aureus NCTC8325; assay: Membrane potential assay with DiOC2(3); type: cell-based; conditions: 30 min treatment
Protocol: S. aureus NCTC8325 was grown to log-phase in LB+0.1% glucose, harvested and the optical density at 600 nm (OD600) was adjusted to 0.5. Bacteria were incubated with 30 μM 3,3′-diethyloxacarbocyanine iodide (DiOC2(3), Invitrogen™) for 15 min in the dark and treated with serial peptide concentrations for 30 min. The protonophore carbonyl cyanide m-chlorophenyl hydrazone (CCCP, Sigma Aldrich) was used as a positive control and DMSO or 0.01% acetic acid as negative control. Fluorescence was measured at an excitation wavelength of 485 nm and two emission wavelengths, 530 nm (green) and 630 (nm) red, using a microplate reader (Tecan, Switzerland).

[11] = tested on: S. Typhimurium; assay: Radial diffusion assay; type: cell-based
Protocol: as §2, §3

Row | Compound | metabolic activity (WST-1 assay) [1] | LDH activity (cytotoxicity) [2] | red blood cell disruption (hemolysis) [3] | other results
1 | CCCCCCCCCCCCCCCC(=O)N[C@@H](CCCNC(=N)N)C(=O)NCC(=O)N[C@@H](CCCCN)C(=O)N[C@@H](C)C(=O)N[C@@H](CCCCN)C(=O)N[C@@H](CS)C(=O)N[C@@H](CS)C(=O)N[C@@H](CCCCN)C(=O)O [Pam-2] (Palmitoyl-RGKAKCCK-OH) | modest decrease | some LDH activity | minimal red blood cell disruption | 
2 | CCCCCCCCCCCCCCCC(=O)NCCOCCOCC(=O)N[C@@H](CCCNC(=N)N)C(=O)NCC(=O)N[C@@H](CCCCN)C(=O)N[C@@H](C)C(=O)N[C@@H](CCCCN)C(=O)N[C@@H](CS)C(=O)N[C@@H](CS)C(=O)N[C@@H](CCCCN)C(=O)O [Pam-3] ({Palmitoyl-AEEA}-RGKAKCCK-OH) | slight decrease | little LDH activity | modest red blood cell disruption | histological examination of gastrointestinal, liver and kidney tissues ([4]; mouse, in vivo, po): no alterations; serum level of creatinine ([4]; mouse, in vivo, po): no significant differences between the groups; serum level of glutamic oxaloacetic transaminase (GOT) ([4]; mouse, in vivo, po): no significant differences between the groups; acute toxicity (histological analysis and serum markers) ([4]; oral, mice, 24 hours after application, 125 or 250 μg doses): did not reveal any acute toxicity; also recorded: No danger signals; MIC [5]: 9.38 µM (≈ 12 µg/mL)
3 | CCCCCCCCCCCCCCCC(=O)NC(CSCC(COC(=O)CCCCCCCCCCCCCCC)OC(=O)CCCCCCCCCCCCCCC)C(=O)N[C@@H](CCCNC(=N)N)C(=O)NCC(=O)N[C@@H](CCCCN)C(=O)N[C@@H](C)C(=O)N[C@@H](CCCCN)C(=O)N[C@@H](CS)C(=O)N[C@@H](CS)C(=O)N[C@@H](CCCCN)C(=O)O (stereo partly drawn) [Pam-4] (Palmitoyl-[ξC](X1)RGKAKCCK-OH) | normal metabolic activity | no LDH activity | minimal red blood cell disruption | 
4 | Pam-Lys(Pam)-RGKAKCCK ({Palmitoyl-K(Pam)}-RGKAKCCK; cysteine pairing not given here) [Pam-5, octapeptide lipopeptide containing lysine as spacer] | normal metabolic activity | no LDH activity | minimal red blood cell disruption | antimicrobial activity, inhibition of bacterial growth of the tested strains [6]: generally inactive; bactericidal activity ([5]; broth microdilution, 1.17-150 μM peptide, 2 hours): moderate effects; cell envelope damage (ypuA reporter) [7]: little cell envelope damage; antifungal activity against C. tropicalis [8]: good activity; also recorded: highly effective; antifungal activity against C. albicans [9]: modest activity; also recorded: some efficacy; breakdown of the membrane potential [10]: most pronounced
5 | RGKAKCCK (Cleavage product of defensin) [octapeptide, the C-terminal eight amino acids of human beta-defensin 1, non-modified] |  |  |  | inhibition of S. Typhimurium growth [11]: failed to inhibit
